Source: patent US11304926B2, “Application of transient receptor potential cation channel TRPV3 in developing drug for preventing or treating psoriasis” (CHINA PHARMACEUTICAL UNIVERSITY, priority 2019, dated 2022)
Entries after “also recorded” stand apart in the source; their conditions may differ.

Molecular target: T1, mTRPV3 (Mus musculus, UniProt Q8K424)
T1 construct: expressed in transfected cells
T1 sequence (Q8K424 1-791): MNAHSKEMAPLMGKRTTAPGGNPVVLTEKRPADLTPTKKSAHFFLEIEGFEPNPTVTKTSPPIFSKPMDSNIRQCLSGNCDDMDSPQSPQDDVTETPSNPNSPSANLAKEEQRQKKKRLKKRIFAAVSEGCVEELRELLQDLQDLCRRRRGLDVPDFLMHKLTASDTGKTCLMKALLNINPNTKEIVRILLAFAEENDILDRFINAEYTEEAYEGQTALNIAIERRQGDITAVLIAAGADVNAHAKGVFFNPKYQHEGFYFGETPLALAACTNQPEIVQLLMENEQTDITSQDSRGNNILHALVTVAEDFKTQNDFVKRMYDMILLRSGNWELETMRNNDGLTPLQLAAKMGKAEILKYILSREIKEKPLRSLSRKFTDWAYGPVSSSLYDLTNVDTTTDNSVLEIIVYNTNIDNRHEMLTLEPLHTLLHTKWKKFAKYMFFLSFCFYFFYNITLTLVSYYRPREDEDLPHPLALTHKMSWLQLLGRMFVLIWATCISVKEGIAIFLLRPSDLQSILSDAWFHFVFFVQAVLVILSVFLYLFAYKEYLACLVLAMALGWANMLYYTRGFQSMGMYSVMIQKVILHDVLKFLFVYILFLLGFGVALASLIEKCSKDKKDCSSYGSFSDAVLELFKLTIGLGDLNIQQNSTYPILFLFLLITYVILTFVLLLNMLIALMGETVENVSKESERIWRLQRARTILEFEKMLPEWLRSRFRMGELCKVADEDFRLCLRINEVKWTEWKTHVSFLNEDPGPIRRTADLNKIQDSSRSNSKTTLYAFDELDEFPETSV
Assay: Intracellular calcium fluorescence (Fluo-4, FLIPR) in HEK-293 cells stably transfecting mTRPV3, 2-APB induced
Type: cell-based
Conditions: Scutellarein 10 μM, 2-APB 300 μM, mTRPV3-HEK-293
Experimental: mTRPV3 plasmids were donated by Professor Jie Zheng from UC Davis. Transfection steps were as follows: HEK-293 cells with a confluence ranging from 70% to 80% and a good growth state were seeded into T-60 small dishes the day before transfection, each small dish contained 4×10^5 cells, and the cells were cultured without penicillin/streptomycin overnight at 37° C. in 5% CO2. 10 μL of plasmids (plasmid concentration was 1000 ng/μL) were diluted with 250 μl of DMEM (article number: 12800017, Gibco), and meanwhile, 10 μL of Lipofectamine 2000 (article number: 11668027, Gibco) was diluted into 250 μL of DMEM. […] Monoclone cells were selected by a limiting dilution method: the screened cells were digested and counted, and seeded into a 96-well plate in sequence at densities of 10^4 cells/well, 10^3 cells/well, 10^2 cells/well, 10 cells/well, and 1 cell/well. Under a fluorescence microscope, wells of separate cells with green fluorescence were labeled, and cells amplified from the wells were HEK-293 cells stably transfecting the mTRPV3. […] The cell plate was placed in a preheated FLIPR® ^TETRA (Molecular Devices, Sunnyvale, Calif., USA) at 30° C., and excited at a wavelength of 488 nm, and fluorescence signals were continuously recorded at a sampling frequency of 1 second at a wavelength range of 515 nm to 575 nm. […]

SMILES: O=c1cc(-c2ccc(O)cc2)oc2cc(O)c(O)c(O)c12 [Scutellarein]
- inhibition of increase of intracellular calcium concentration (calcium influx) induced by 2-APB: could inhibit increase of the intracellular calcium concentration; also recorded: obvious inhibitory effect
